Laboratory results as given in patent publication US12137687B2, “Method for inducing acquired resistance in a plant” (HEINRICH HEINE UNIVERSITAET DUESSELDORF, priority 2017, dated 2024).
Read-outs that look alike come from different tables or passages of the source.

Tests used:
[1] = test system: Pseudomonas syringae pv. tabaci (DSM 1856); assay: Tobacco (Nicotiana tabacum cv Xanthi) resistance to Pseudomonas tabaci after soil-applied Pip/NHP; conditions: for disease symptoms (yellowing and wilting) of infiltrated 1° leaves: tobacco 4-leaf stage, 40 ml of 1 mM (40 μmol) via soil 1 d prior to inoculation, 48 h after infection
Protocol: Plant pots with tobacco at the 4-leaf stage (BBCH growth stage 1004) were supplied with either 40 ml of H2O (mock-treatment; left) or 40 ml of 1 mM Pip or NHP (=40 μmol) 1 d prior to inoculation with a suspension (OD600=0.005, O/N-culture grown at 18° C.) of Pseudomonas tabaci via pressure infiltration. […] Infiltrated 1° leaves from representative plants were cut and photographed 48 h after the initial infection.

[2] = test system: Hyaloperonospora arabidopsidis (Hpa) isolate Noco2; assay: Arabidopsis thaliana resistance to Hpa after Pip/NHP pre-treatment (symptoms, Trypan blue microscopy); assay type: in vivo; conditions: for symptomology of leaves (photographs): 7 days after inoculation; for disease development in the SA-deficient mutant: sid2 mutant
[3] = test system: Pseudomonas syringae pv maculicola ES4326 (Psm lux); assay type: in vivo
[4] = 1° leaves pressure-infiltrated with 1 mM NHP 24 h before inoculation

O=C(O)C1CCCCN1O (stereo not shown) [NHP, 1-hydroxypiperidine-2-carboxylic acid]
Resistance effect after NHP pre-treatment ([1]; Nicotiana tabacum cv. Xanthi, Pseudomonas syringae pv. tabaci (DSM 1856)): Yes | disease symptoms (yellowing and wilting) of infiltrated 1° leaves [1]: almost absent | Resistance effect after NHP pre-treatment ([2]; Arabidopsis thaliana, Hyaloperonospora arabidopsidis): Yes | symptomology of leaves (photographs) ([2]; Col-0, ald1, and fmo1, 10 μmol via soil): completely symptom-free | development of oospores ([2]; Col-0, 10 μmol via soil, 7 dpi): completely inhibited | examined leaves that fully prohibited the formation of intercellular hyphae ([2]; Col-0, 10 μmol via soil, 7 dpi): About 70% | macroscopic mildew symptoms ([2]; Col-0, 10 μmol via soil, 7 dpi): completely free of mildew symptoms | occurrence/development of conidiophores on leaves ([2]; Col-0, 10 μmol via soil, 7 dpi): completely inhibited | disease development in the SA-deficient mutant ([2]; 10 μmol via soil): not able to fully prevent disease development | reduction of bacterial numbers, 2° leaves inoculated (systemic) [3, 4]: more than 15 fold | reduction of bacterial numbers, Psm lux infiltrated in the pre-treated 1° leaves (local) [3, 4]: about 8 fold | Resistance effect after NHP pre-treatment ([3]; Arabidopsis thaliana, Pseudomonas syringae): Yes | attenuation of Psm lux growth ([3]; Col-0, ald1, and fmo1 (all genotypes), 10 μmol via soil 1 d before inoculation, 60 hpi): at least one order of magnitude | chlorotic symptom development ([3]; Col-0, ald1, and fmo1, 10 μmol via soil, 72 hpi): lack of the chlorotic symptom development | reduction in bacterial numbers compared to mock-treated plants ([3]; Col-0, 10 μmol NHP via soil 1 day before infection, 54 h post inoculation): about 9 fold | reduction in bacterial numbers compared to mock-treated plants ([3]; Col-0, 10 μmol NHP via soil 3 days before infection, 54 h post inoculation): about 6 fold | reduction in bacterial numbers compared to mock-treated plants ([3]; Col-0, 10 μmol NHP via soil 7 days before infection, 54 h post inoculation): about 3 fold | further reduction of bacterial growth compared to plants treated with 10 μmol of NHP ([3]; Col-0, 100 μmol NHP per pot via soil, 54 h post inoculation): 2 fold | reduction of bacterial numbers compared to control plants ([3]; Col-0, 0.1 mM NHP (1 μmol/pot) via soil 24 h prior to Psm lux, 54 h post inoculation): about 2 fold | reduction of bacterial numbers compared to mock-treated plants ([3]; Col-0, 10 mM NHP (100 μmol per pot) via soil 24 h prior to Psm lux, 54 h post inoculation): about 20 fold | lower levels of bacteria in leaves compared to control plants ([3]; Col-0, 10 ml of 1 mM NHP (10 μmol per pot) via soil 24 h prior to Psm lux, 54 h post inoculation): about 11 fold | disease symptoms of leaves ([3]; Col-0, 10 ml of 1 mM NHP via soil 24 h prior to Psm lux): largely symptom-free | reduction of bacterial numbers in Psm lux-inoculated 1° leaves ([3]; Col-0, foliar spray of 1 mM NHP with 0.005% Silwet 24 h before inoculation, 54 h post inoculation): about 12 fold | difference in bacterial numbers between control and treated plants ([3]; Col-0 wild-type (experiment with sid2), 10 μmol via soil, 60 hpi): ten-fold difference | bacterial numbers in leaves lower than those of naive plants ([3]; SA-deficient sid2 mutant, 10 μmol via soil, 60 hpi): about 2.5 fold

O=C(O)[C@@H]1CCCCN1 [Pip, (S)-piperidine-2-carboxylic acid]
disease symptoms (yellowing and wilting) of infiltrated 1° leaves [1]: severely reduced | average length of intercellular hyphae growing inside leaves ([2]; Col-0, 10 μmol via soil 24 h before Hpa, 7 dpi): about 50 mm cm^−2 | development of oospores ([2]; Col-0, 10 μmol via soil, 7 dpi): fully prevented | intercellular hyphae closely encased by dead host cells (trailing necrosis) ([2]; Col-0, 10 μmol via soil, 7 dpi): about 60% | length of intercellular hyphae as share of the value for non-pretreated Col-0 plants ([2]; Col-0, 10 μmol via soil, 7 dpi): ~10% | macroscopic mildew symptoms ([2]; Col-0, 10 μmol via soil, 7 dpi): largely symptom-free | occurrence/development of conidiophores on leaves ([2]; Col-0, 10 μmol via soil, 7 dpi): greatly diminished | symptomology of leaves (photographs) ([2]; Col-0 and ald1, 10 μmol via soil): only sporadically show small areas of visible mildew symptoms | effect on the resistance of fmo1 to Hpa ([2]; fmo1 mutant, 10 μmol via soil): no effect | disease development in the SA-deficient mutant ([2]; 10 μmol via soil): not able to fully prevent disease development | bacterial multiplication in leaves of treated compared with control plants ([3]; Col-0 and ald1, 10 μmol via soil 1 d before Psm lux, 60 hpi): ten-fold lower | chlorotic leaf symptoms ([3]; Col-0 and ald1, 10 μmol via soil, 72 hpi): suppression of the development of chlorotic leaf symptoms
